According to the NIST ThermoML archive (doi:10.1016/j.jct.2012.05.030):
± gives the expanded uncertainty stated by the source.

How the values were obtained:
[1] = refractive index (other wavelength) (dimensionless); conditions: 100 kPa, Liquid, Wavelength=632.8 nm, Standard Abbe refractometry
[2] = refractive index (other wavelength) (dimensionless); xn = mol fraction of the nth substance listed; conditions: 100 kPa, Liquid, Wavelength=632.8 nm, Standard Abbe refractometry

N#Cc1ccccc1 [benzonitrile]
[1]
Conditions	refractive index
293.37 K	1.5252 ± 0.0008
293.99 K	1.5249 ± 0.0008
294.53 K	1.5247 ± 0.0008
295.09 K	1.5243 ± 0.0008
295.66 K	1.5241 ± 0.0008
296.11 K	1.5238 ± 0.0008
296.8 K	1.5236 ± 0.0008
297.16 K	1.5233 ± 0.0008
297.91 K	1.523 ± 0.0008
298.2 K	1.5228 ± 0.0008
298.8 K	1.5225 ± 0.0008
298.83 K	1.5226 ± 0.0008
299.26 K	1.5223 ± 0.0008
300.06 K	1.5219 ± 0.0008
300.12 K	1.5219 ± 0.0008
300.31 K	1.5218 ± 0.0008
301.13 K	1.5214 ± 0.0008
301.23 K	1.5214 ± 0.0008
301.35 K	1.5213 ± 0.0008
302.26 K	1.5209 ± 0.0008
302.31 K	1.5209 ± 0.0008
302.42 K	1.5208 ± 0.0008
302.65 K	1.5207 ± 0.0008
303.41 K	1.5203 ± 0.0008
304.49 K	1.5198 ± 0.0008
305.64 K	1.5192 ± 0.0008
306.89 K	1.5186 ± 0.0008
307.55 K	1.5183 ± 0.0008
307.88 K	1.5181 ± 0.0008

N#Cc1ccccc1 [benzonitrile] + CCCCCCCCCCCCCCC
[2], x1 = 1
Conditions	refractive index
293.37 K	1.5252 ± 0.0008
293.99 K	1.5249 ± 0.0008
294.53 K	1.5247 ± 0.0008
295.09 K	1.5243 ± 0.0008
295.66 K	1.5241 ± 0.0008
296.11 K	1.5238 ± 0.0008
296.8 K	1.5236 ± 0.0008
297.16 K	1.5233 ± 0.0008
297.91 K	1.523 ± 0.0008
298.2 K	1.5228 ± 0.0008
298.8 K	1.5225 ± 0.0008
298.83 K	1.5226 ± 0.0008
299.26 K	1.5223 ± 0.0008
300.06 K	1.5219 ± 0.0008
300.12 K	1.5219 ± 0.0008
300.31 K	1.5218 ± 0.0008
301.13 K	1.5214 ± 0.0008
301.23 K	1.5214 ± 0.0008
301.35 K	1.5213 ± 0.0008
302.26 K	1.5209 ± 0.0008
302.31 K	1.5209 ± 0.0008
302.42 K	1.5208 ± 0.0008
302.65 K	1.5207 ± 0.0008
303.41 K	1.5203 ± 0.0008
304.49 K	1.5198 ± 0.0008
305.64 K	1.5192 ± 0.0008
306.89 K	1.5186 ± 0.0008
307.88 K	1.5181 ± 0.0008

N#Cc1ccccc1 [benzonitrile] + CCCCCCCCCCCCCCCCC
[2], x1 = 1
Conditions	refractive index
293.37 K	1.5252 ± 0.0008
293.99 K	1.5249 ± 0.0008
294.53 K	1.5247 ± 0.0008
295.09 K	1.5243 ± 0.0008
295.66 K	1.5241 ± 0.0008
296.11 K	1.5238 ± 0.0008
296.8 K	1.5236 ± 0.0008
297.16 K	1.5233 ± 0.0008
297.91 K	1.523 ± 0.0008
298.2 K	1.5228 ± 0.0008
298.8 K	1.5225 ± 0.0008
298.83 K	1.5226 ± 0.0008
299.26 K	1.5223 ± 0.0008
300.06 K	1.5219 ± 0.0008
300.12 K	1.5219 ± 0.0008
300.31 K	1.5218 ± 0.0008
301.13 K	1.5214 ± 0.0008
301.23 K	1.5214 ± 0.0008
301.35 K	1.5213 ± 0.0008
302.26 K	1.5209 ± 0.0008
302.31 K	1.5209 ± 0.0008
302.42 K	1.5208 ± 0.0008
303.41 K	1.5203 ± 0.0008
304.49 K	1.5198 ± 0.0008
305.64 K	1.5192 ± 0.0008
306.89 K	1.5186 ± 0.0008
307.55 K	1.5183 ± 0.0008
307.88 K	1.5181 ± 0.0008

CCCCCCCCCCCCCCCCC [heptadecane]
[1]
Conditions	refractive index
298.76 K	1.4331 ± 0.0008
299.97 K	1.4326 ± 0.0008
301.18 K	1.4321 ± 0.0008
302.15 K	1.4317 ± 0.0008
303.27 K	1.4313 ± 0.0008
304.24 K	1.4309 ± 0.0008
305.29 K	1.4304 ± 0.0008
306.32 K	1.43 ± 0.0008
307.42 K	1.4296 ± 0.0008
307.55 K	1.4296 ± 0.0008

CCCCCCCCCCCCCCCCC [heptadecane] + N#Cc1ccccc1
[2]
Conditions	refractive index
298.76 K, x2 = 0	1.4331 ± 0.0008
299.97 K, x2 = 0	1.4326 ± 0.0008
301.18 K, x2 = 0	1.4321 ± 0.0008
302.15 K, x2 = 0	1.4317 ± 0.0008
303.27 K, x2 = 0	1.4313 ± 0.0008
304.24 K, x2 = 0	1.4309 ± 0.0008
305.29 K, x2 = 0	1.4304 ± 0.0008
306.32 K, x2 = 0	1.43 ± 0.0008
307.42 K, x2 = 0	1.4296 ± 0.0008
307.55 K, x2 = 0	1.4296 ± 0.0008
307.55 K, x2 = 0.1039	1.4325 ± 0.0008
307.55 K, x2 = 0.2138	1.4362 ± 0.0008
307.55 K, x2 = 0.3266	1.4411 ± 0.0008
307.55 K, x2 = 0.4187	1.4458 ± 0.0008
307.55 K, x2 = 0.5127	1.4515 ± 0.0008
307.55 K, x2 = 0.5975	1.4578 ± 0.0008
307.55 K, x2 = 0.7127	1.4688 ± 0.0008
307.55 K, x2 = 0.8046	1.4802 ± 0.0008
307.55 K, x2 = 0.9266	1.501 ± 0.0008

CCCCCCCCCCCCCCC [pentadecane]
[1]
Conditions	refractive index
293.37 K	1.4305 ± 0.0008
294.36 K	1.4301 ± 0.0008
295.64 K	1.4296 ± 0.0008
296.92 K	1.429 ± 0.0008
297.91 K	1.4286 ± 0.0008
299.12 K	1.4281 ± 0.0008
300.26 K	1.4276 ± 0.0008
301.51 K	1.4271 ± 0.0008
302.46 K	1.4267 ± 0.0008
302.65 K	1.4266 ± 0.0008

CCCCCCCCCCCCCCC [pentadecane] + N#Cc1ccccc1
[2]
Conditions	refractive index
293.37 K, x2 = 0	1.4305 ± 0.0008
294.36 K, x2 = 0	1.4301 ± 0.0008
295.64 K, x2 = 0	1.4296 ± 0.0008
296.92 K, x2 = 0	1.429 ± 0.0008
297.91 K, x2 = 0	1.4286 ± 0.0008
299.12 K, x2 = 0	1.4281 ± 0.0008
300.26 K, x2 = 0	1.4276 ± 0.0008
301.51 K, x2 = 0	1.4271 ± 0.0008
302.46 K, x2 = 0	1.4267 ± 0.0008
302.65 K, x2 = 0	1.4266 ± 0.0008
302.65 K, x2 = 0.1097	1.4304 ± 0.0008
302.65 K, x2 = 0.22	1.435 ± 0.0008
302.65 K, x2 = 0.3283	1.4404 ± 0.0008
302.65 K, x2 = 0.4141	1.4454 ± 0.0008
302.65 K, x2 = 0.4959	1.451 ± 0.0008
302.65 K, x2 = 0.5849	1.4582 ± 0.0008
302.65 K, x2 = 0.7005	1.4698 ± 0.0008
302.65 K, x2 = 0.8052	1.4832 ± 0.0008
302.65 K, x2 = 0.8983	1.4986 ± 0.0008
